Laboratory results taken from patent publication US20250262228A1, “TREATMENT OF SPASTICITY AND PAIN IN RENALLY-IMPAIRED PATIENTS” (Jazz Pharmaceuticals Research UK Limited., priority 2022, published 2025).

Experiments:
[1] = for Cmax, Geometric LS Mean Ratio (Severe RI/Normal), Estimate / AUClast, Geometric LS Mean Ratio (Severe RI/Normal), Estimate: plasma, mixed model; for Cmax, Geometric LS Mean Ratio (Severe RI/Normal), Estimate / AUClast, Geometric LS Mean Ratio (Severe RI/Normal), Estimate / increase in AUClast in severe renal impairment versus normal renal function / AUC0-tlast Fold Change from Normal / increase in AUC in the renally impaired group compared to the normal group / mean plasma concentrations over time in renally impaired participants versus normal: 4 sprays; for AUClast, Geometric LS Mean Ratio (Severe RI/Normal), Estimate: significant when ratio >=2.0 plus 90% CI outside 0.5-2.0; for elimination in patients with renal impairment: renally impaired vs normal, after oromucosal spray; for increase in AUClast in severe renal impairment versus normal renal function / increase in AUC in the renally impaired group compared to the normal group: severe renal impairment vs normal, oromucosal spray; for AUC0-tlast Fold Change from Normal / mean plasma concentrations over time in renally impaired participants versus normal: severe renal impairment; for mean plasma concentrations over time in renally impaired participants versus normal: FIGS. 1-4
Source text: Rationale: To date, no studies of administering the disclosed oromucosal spray in patients with varying degrees of renal impairment have been conducted. The present trial investigated the effects of the oromucosal spray in subjects with severe renal impairment. The principal aim of this trial was to assess the pharmacokinetic (PK) parameters following oromucosal administration in patients with severe renal impairment and individually matched healthy participants (i.e., otherwise identical patients with normal renal function).
Primary Objectives: Evaluated and compared the PK parameters of the oromucosal spray in participants with severe renal impairment or End-Stage Renal Disease (ESRD) to the PK profile in matched participants with normal renal function.
Primary Endpoints: The PK parameters, derived from the plasma concentration-time (Cmax) and area under the concentration-time curve calculated to the last concentration at time t (AUC0-t), or 48 hours (AUC0-48), for THC, CBD, and metabolites of THC and CBD (e.g., 11-OH-THC and 7-COOH-CBD).
The 4 sprays administered a total of 10.8 mg THC and 10 mg CBD. The duration of the trial was approximately 45 days, which included a screening period (up to 4 weeks), a treatment period (48 hours) and a safety follow-up period (2 weeks). Screening was performed within 28 to 2 days before dosing, and the assessments included measurement of serum creatinine to assess the eGFR as determined by the modification of diet in renal disease formula (MDRD) to verify initial participant eligibility for trial participation. Participants entered the screening period (Day −28 to −1). From Day −1, screened participants who continued to meet eligibility criteria were admitted to the clinical research facility and placed under observation continually from dosing until 48 hours postdose. […] On Day 1, participants received 4 sprays of the oromucosal spray.
Formulation Mode of Administration, Dose, and Regimen: The oromucosal spray was formulated as a mixture of THC and CBD extracts derived from Cannabis sativa L. The formulation contains THC and CBD as the most abundant cannabinoid constituents and also contains minor constituents including related cannabinoids and non-cannabinoid plant components, such as terpenes, sterols, and triglycerides. The spray contains 27 mg/mL of THC and 25 mg/mL of CBD dissolved in the excipients (e.g., ethanol and propylene glycol). Each spray delivers 100 μL containing 2.7 mg of THC and 2.5 mg of CBD.
Procedures: PK samplings were taken as close as to the nominal time point. Participants fasted overnight for at least 10 hours prior to the administration and for at least 4 hours thereafter. Standardized meals and beverages were provided at approximately 4 hours and 9 hours after dosing. With the exception of the water administered at the time of dosing, water was not permitted from 1 hour before until 1 hour after dosing. […] Cannabis or use of anticonvulsants, antidepressants, antipsychotic and anxiolytic medications were not allowed throughout the trial. Alcohol, nicotine products, and consuming food or beverages containing methylxanthines (caffeinated food or beverages) were prohibited for 24 hours prior to each visit and throughout the inpatient period.

[2] = renally impaired patients administered highly purified CBD; cited from earlier work

SMILES | Cmax, Geometric LS Mean Ratio (Severe RI/Normal), Estimate [1] | AUClast, Geometric LS Mean Ratio (Severe RI/Normal), Estimate [1] | elimination in patients with renal impairment [1] | increase in AUClast in severe renal impairment versus normal renal function [1] | AUC0-tlast Fold Change from Normal [1] [fold] | increase in AUC in the renally impaired group compared to the normal group [1] [fold] | mean plasma concentrations over time in renally impaired participants versus normal [1] | clinically relevant elevations of CBD, 7-OH-CBD and 7-COOH-CBD (mean AUClast ratios greater than 2 between the renally impaired and the control) [2]
C=C(C)[C@@H]1CCC(C(=O)O)=C[C@H]1c1c(O)cc(CCCCC)cc1O [7-COOH-CBD] | 1.4 | 1.92 | relatively unchanged | < 2 fold | 1.92 | – | – | –
C=C(C)[C@@H]1CCC(CO)=C[C@H]1c1c(O)cc(CCCCC)cc1O [7-OH-CBD] | 1.89 | 4.59 | clinically significant prolonged elimination | approximately 3 fold | 4.59 | 4.59 | – | –
CCCCCc1cc(O)c2c(c1)OC(C)(C)[C@@H]1CCC(C(=O)O)=C[C@@H]21 [11-COOH-THC] | 1.15 | 1.26 | relatively unchanged | – | 1.26 | – | – | –
CCCCCc1cc(O)c2c(c1)OC(C)(C)[C@@H]1CCC(CO)=C[C@@H]21 [11-OH-THC] | 2.13 | 3.18 | clinically significant prolonged elimination | – | 3.18 | 3.18 | Much higher | –
C=C(C)[C@@H]1CCC(C)=C[C@H]1c1c(O)cc(CCCCC)cc1O [CBD, Cannabidiol, reference compound] | 1.11 | 1.95 | relatively unchanged | – | 1.95 | – | elevated | –
CCCCCc1cc(O)c2c(c1)OC(C)(C)[C@@H]1CCC(C)=C[C@@H]21 [THC, Δ-9-tetrahydrocannabinol, reference compound] | 0.8 | 1.34 | relatively unchanged | – | 1.34 | – | elevated | –
C=C(C)[C@@H]1CCC(C)=C[C@H]1c1c(O)cc(CCCCC)cc1O [highly purified form of CBD] | – | – | – | – | – | – | – | not observed
